# Source: patent US20190375787A1, “PEPTIDOMIMETICS AND THEIR USE IN THERAPY” (INSTYTUT […]. Z O.O., priority 2016, published 2019)
# Square brackets hold non-standard residues; d marks the D form. Peptide text beside a SMILES is read from it. * marks the point of attachment. X1 = C(=Cc1ccccc1)CN1CCN(*)CC1
# Legend:
# Format in all cases: cell-based
# [1] = system: human pancreatic cancer cell line CFPAC-1; assay: MTS cell viability test on CFPAC-1 cells; conditions: 24 h incubation; for activity (cell viability) compared with gem and 5FU: CFPAC-1, concentrations 0.01-0.1 mM; for activity relative to the reference drugs (gem, 5FU): CFPAC-1, higher concentrations (above 0.1 mM)
# Text: Phenylalanyl-trans-1-cinnamylpiperazine was acylated with t-Boc-Tyr-D-Ala using TBTU/DIPEA methodology. The reaction product was precipitated with 10% NaHCO3 and separated from the reaction mixture by filtration. The solid was washed three times with water, until neutral pH of the filtrate was reached. The t-butyloxycarbonyl group was removed using TFA:DCM (1:1). The crude product was purified by preparative HPLC in a gradient of water/methanol with addition of 0.1% trifluoroacetic acid. The counterion was changed to Cl^− using the Dowex ion-exchange resin. The purified product, tyrosyl-D-alanyl-phenylalanyl-cinnamylpiperazine hydrochloride (further called TyrDAlaPheCyn) was tested on human pancreatic cancer cell line CFPAC-1, in comparison to commercial drugs, gemcitabine (gem) and 5-fluorouracil (5FU). The cells were grown on IMDM medium supplemented with 10% (v/v h.i. FBS, 2 mM L-glutamine and 1% (v/v) penicillin-streptomycin, in 37° C., in humidified atmosphere, with 5% CO2. The cells were seeded in 96 wells plate (3×10^3 cells per well) and incubated for 24 h (37° C., 5% CO2) in the culture medium. Next, TyrDAlaPheCyn, gem and 5FU in 5% DMSO solutions were added, to give in wells concentrations 0 (5% DMSO); 0.01; 0.05; 0.1; 0.5; and 1 mM. The plates were incubated for 24 h (37° C., 5% CO2). Cell viability was determined using colorimetric test MTS (3-(4,5-dimethylthiazol-2-yl)-5-(3-carboxymethoxyphenyl)-2-(4-sulfophenyl)-2H-tetrazolium). To each well, 20 μl of the reagent was added, and the plates were incubated in the same conditions for 1 h. The absorbance intensity at 490 nm was read. […] However, at higher concentrations, activity of the tested compound was even 4 times higher than for the reference drugs.
# Tryptophyl-trans-1-cinnamylpiperazine was acylated with t-Boc-Tyr-D-Ala using TBTU/DIPEA methodology. The reaction product was precipitated with 10% NaHCO3 and separated from the reaction mixture by filtration. The solid was washed three times with water, until neutral pH of the filtrate was reached. The t-butyloxycarbonyl group was removed using TFA:DCM (1:1). […] The cells were grown on DMDM medium supplemented with 10% (v/v h.i. FBS, 2 mM L-glutamine and 1% (v/v) penicillin-streptomycin, in 37° C., in humidified atmosphere, with 5% CO2. The cells were seeded in 96 wells plate (3×10^3 cells per well) and incubated for 24 h (37° C., 5% CO2) in the culture medium. Next, TyrDAlaTrpCyn, gem and 5FU in 5% DMSO solutions were added, to assure in wells concentrations 0 (5% DMSO); 0.01; 0.05; 0.1; 0.5; and 1 mM. The plates were incubated for 24 h (37° C., 5% CO2). Cell viability was determined using colorimetric test MTS (3-(4,5-dimethylthiazol-2-yl)-5-(3-carboxymethoxyphenyl)-2-(4-sulfophenyl)-2H-tetrazolium). […] The absorbance intensity at 490 nm was read. […]
# [2] = system: HT29 (intestinal cancer) cells; assay: Inhibition of cell migration (transwell insert), HT29; conditions: HT29, IC50 concentration, concentrations below 400 μM
# Experimental: (§1) Inhibition of cell migration was evaluated using 24-well plates with PET (polyethylene terephthalate) membrane transwell insert. The experiment was performed using IC50 concentrations of the tested compounds, and migration of the cells, that means, the number of the cells passing through the membrane to the bottom side of the membrane, was observed. The cells which passed the membrane, were stained with crystal violet and counted.
# [3] = system: Colo205 (intestinal cancer) cells; assay: Inhibition of cell migration (transwell insert), Colo205; conditions: Colo205, IC50 concentration, concentrations below 400 μM
# Experimental: as §1
# [4] = system: SW480 (intestinal cancer) cells; assay: Inhibition of cell migration (transwell insert), SW480; conditions: SW480, IC50 concentration
# Experimental: as §1
# [5] = system: SW620 (intestinal cancer) cells; assay: Inhibition of cell migration (transwell insert), SW620; conditions: SW620, IC50 concentration
# Experimental: as §1
# [6] = system: SW620 (intestinal cancer); assay: Cell growth, colorimetric MTT or XTT, SW620
# Experimental: (§2) Influence of the compounds on the cell growth was evaluated by colorimetric method, using MTT or XTT reagent, values of IC50 were determined. The tests were based on reduction of the salt by mitochondrial dehydrogenase from metabolically active cells. The colored product of the reaction was determined colorimetrically, and in result the number of living cells was assigned.
# HT29 (intestinal cancer) = assay: Cell growth, colorimetric MTT or XTT, HT29
# Experimental: as §2
# [7] = system: Colo205 (intestinal cancer); assay: Cell growth, colorimetric MTT or XTT, Colo205
# Experimental: as §2
Compound,activity (cell viability) compared with gem and 5FU [1],"activity relative to the reference drugs (gem, 5FU) [1] [times]",inhibition of cell migration [2] [%],inhibition of cell migration [3] [%],inhibition of cell migration ([4]; concentrations below 400 μM) [%],IC50 [6] [µM],also measured
"C[C@@H](NC(=O)[C@@H](N)Cc1ccc(O)cc1)C(=O)N[C@@H](Cc1ccccc1)C(=O)N1CCN(CC=Cc2ccccc2)CC1.Cl [TyrDAlaPheCyn, tyrosyl-D-alanyl-phenylalanyl-cinnamylpiperazine hydrochloride]",similar,4,,,,,
"C[C@@H](NC(=O)[C@@H](N)Cc1ccc(O)cc1)C(=O)NCC(=O)N[C@@H](Cc1ccccc1)C(=O)N1CCN(CC=Cc2ccccc2)CC1.Cl [TyrDAlaGlyPheCyn, tyrosyl-D-alanyl-glicyl-phenylalanyl-1-cinnamylpiperazine hydrochloride]",,,≤ 70,≤ 60,≤ 60,< 450,inhibition of cell migration ([5]; concentrations below 450 μM): ≤ 40%
"C[C@@H](NC(=O)[C@@H](N)Cc1ccc(O)cc1)C(=O)N[C@@H](Cc1c[nH]c2ccccc12)C(=O)N1CCN(CC=Cc2ccccc2)CC1.Cl [TyrDAlaTrpCyn, tyrosyl-D-alanyl-tryptophyl-cinnamylpiperazine hydrochloride]",similar,4,,,,,
"C[C@H](O)[C@@H](NC(=O)[C@@H](N)Cc1ccc(O)cc1)C(=O)NCC(=O)N[C@@H](Cc1ccccc1)C(=O)N1CCN(CC=Cc2ccccc2)CC1.Cl [TyrDThrGlyPheCyn, tyrosyl-D-threonyl-glicyl-phenylalanyl-1-cinnamylpiperazine hydrochloride] (H-Y[dT]GF-X1)",,,,,,< 650,inhibition of cell migration ([4]; concentrations below 500 μM): ≤ 45%
"C[C@@H](NC(=O)[C@@H](N)Cc1ccc(O)cc1)C(=O)NCC(=O)N[C@@H](Cc1c[nH]c2ccccc12)C(=O)N1CCN(CC=Cc2ccccc2)CC1.Cl [TyrDAlaGlyTrpCyn, tyrosyl-D-alanyl-glicyl-tryptophyl-1-cinnamylpiperazine hydrochloride] (H-Y[dA]GW-X1)",,,≤ 50,≤ 40,≤ 30,< 500,inhibition of cell migration ([5]; concentrations below 500 μM): ≤ 30%
"C[C@H](O)[C@@H](NC(=O)[C@@H](N)Cc1ccc(O)cc1)C(=O)NCC(=O)N[C@@H](Cc1c[nH]c2ccccc12)C(=O)N1CCN(CC=Cc2ccccc2)CC1.Cl [TyrDThrGlyTrpCyn, tyrosyl-D-threonyl-glicyl-tryptophyl-1-cinnamylpiperazine hydrochloride] (H-Y[dT]GW-X1)",,,,,,< 600,inhibition of cell migration ([4]; concentrations below 600 μM): ≤ 40%; inhibition of cell migration ([5]; concentrations below 600 μM): ≤ 30%; IC50 (HT29 (intestinal cancer)): < 600 µM; IC50 [7]: < 650 µM
